Test results published in patent publication US20240148821A1, “PHARMACEUTICAL USE OF CYCLIC PEPTIDE COMPOUND” (CHUGAI SEIYAKU KABUSHIKI KAISHA, priority 2021, published 2024).
Values belong to the compound of their own block, whether it stands above or below them. Numbered stars: 1 amine (or outer) side, 2 acyl side, 3 side chain; on linkers, the order of the positions; unused ones are H or OH. Bridge positions count the residues as written; N and C are the ends. Square brackets hold non-standard residues; d marks the D form. Peptide text beside a SMILES is read from it. * marks the point of attachment. hPhe(3,5-F2-4-CF3) = N[C@@H](CCc1cc(F)c(C(F)(F)F)c(F)c1)C(=O)O; hPhe(3-Cl-4-CF3) = N[C@@H](CCc1ccc(C(F)(F)F)c(Cl)c1)C(=O)O; hPhe(3-F,4-CF3) = N[C@@H](CCc1ccc(C(F)(F)F)c(F)c1)C(=O)O; X27 = CN([C@@H](Cc1ccc(C(F)(F)F)nc1)C(=O)[*:2])[*:1]; hPhe(4-CF3) = N[C@@H](CCc1ccc(C(F)(F)F)cc1)C(=O)O; NEtPhe(4-Me) = CCN[C@@H](Cc1ccc(C)cc1)C(=O)O; NMePhe(4-Cl) = CN[C@@H](Cc1ccc(Cl)cc1)C(=O)O; NMePhe(4-Me) = CN[C@@H](Cc1ccc(C)cc1)C(=O)O; NMedβ3hAla = C[C@H](CC(=O)[*:2])N(C)[*:1]; NMeGly(cPent) = CN[C@H](C(=O)O)C1CCCC1; X136 = O=C(CN(CCN1CCNCC1)[*:1])[*:2]; NMeCha = CN[C@@H](CC1CCCCC1)C(=O)O; X82 = O=C(CN(CCC1CNC1)[*:1])[*:2]; Hyp = O=C(O)[C@@H]1C[C@@H](O)CN1; NMeChg = CN[C@H](C(=O)O)C1CCCCC1; NMeI = CC[C@H](C)[C@H](NC)C(=O)O; X138 = NCCOCCN(CC(=O)[*:2])[*:1]; X58 = CNCCOCCN(CC(=O)[*:2])[*:1]; Cha = N[C@@H](CC1CCCCC1)C(=O)O; NMeD = CN[C@@H](CC(=O)O)C(=O)O; NMeL = CN[C@@H](CC(C)C)C(=O)O; NMePra = C#CC[C@H](NC)C(=O)O; NMeV = CN[C@H](C(=O)O)C(C)C; hSer = N[C@@H](CCO)C(=O)O; NMeA = CN[C@@H](C)C(=O)O; NMeAib = CNC(C)(C)C(=O)O; Piperidide = C1CCN(*)CC1; Pyrrolidide = C1CCN(*)C1; Ac5c = NC1(C(=O)O)CCCC1; Aze = O=C(O)[C@@H]1CCN1; Alloc = C=CCOC(=O)*; NEtG = CCNCC(=O)O; Sar = CNCC(=O)O

Experiments:
[1] = target: protein-protein interaction between Kras and SOS1 (biotin-tagged human Kras loaded with GDP, His-tagged human SOS1) (Homo sapiens (Human), UniProt P01116, G12D); experiment: Protein-protein interaction inhibition between Kras and SOS1 (KrasG12D-SOS PPI) using AlphaScreen; format: biochemical; conditions: AlphaScreen; biotin-tagged human Kras loaded with GDP, His-tagged human SOS1; read-out: KRAS G12D-SOS PPI IC50;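 note: kras produced in E. coli, Ni-coupled donor beads and streptavidin acceptor beads, excitation 680 nm with emission detected at 520–620 nm via singlet oxygen transfer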
[2] = tested on: Human pancreatic cancer cell line AsPC-1 (G12D mutation Kras); experiment: AsPC-1 cell growth inhibition (AsPC-1 CGI); format: cell-based; conditions: read-out: AsPC-1 cell growth inhibition, 50% growth inhibitory concentration (IC50 value); 96 hours, CellTiter-Glo, values classified in ranges
Experimental: Test compounds were serially dilated with dimethyl sulfoxide, and 200 nL was then dispensed to a U-bottom 96-well plate using Labcyte Echo. […] The cell suspension was dispensed to a. plate containing a test compound at 100 μL per well and incubated at 37° C. in a 5% carbon dioxide gas incubator. 96 hours later, 80 μL of CellTiter-Glo (Promega) was added to each well and fluorescence was measured.

SMILES: CC(C)C[C@H]1C(=O)N[C@@H](CC2CCCCC2)C(=O)N(C)CC(=O)N(C)CC(=O)N(C)[C@@H](CC2CCCCC2)C(=O)N(C)CC(=O)N[C@@H](CCc2ccc(C(F)(F)F)c(Cl)c2)C(=O)N2CCC[C@H]2C(=O)NC2(CCCC2)C(=O)N(C)[C@@H](C2CCCCC2)C(=O)N(C)[C@H](C(=O)N2CCCCC2)CC(=O)N1C [Compound 1] ([NMeL][Cha][Sar][Sar][NMeCha][Sar][hPhe(3-Cl-4-CF3)]P[Ac5c][NMeChg][NMeD]-Piperidide; lactam N-11)
- IC50 [1]: 5.9 nM
- IC50 [2]: > 500 nM

SMILES: CC[C@H](C)[C@@H]1NC(=O)[C@H](CC(C)C)N(C)C(=O)C[C@@H](C(=O)N(C)C)N(C)C(=O)[C@H](C2CCCC2)N(C)C(=O)C2(CCCC2)NC(=O)[C@@H]2CCCN2C(=O)[C@H](CCc2ccc(C(F)(F)F)c(Cl)c2)NC(=O)CN(CC)C(=O)[C@H](Cc2ccc(C)cc2)N(C)C(=O)[C@@H]2CCN2C(=O)[C@H](C)N(C)C1=O [Compound 5] ([NMeL]I[NMeA][Aze][NMePhe(4-Me)][NEtG][hPhe(3-Cl-4-CF3)]P[Ac5c][NMeGly(cPent)][NMeD]-NMe2; lactam N-11)
- IC50 [1]: 0.99 nM
- IC50 [2]: ≤ 20 nM

SMILES: CC[C@H](C)[C@@H]1NC(=O)[C@H](CC(C)C)N(C)C(=O)C[C@@H](C(=O)N2CCCCC2)N(C)C(=O)[C@H](C2CCCCC2)N(C)C(=O)C2(CCCC2)NC(=O)[C@H](Cc2ccc(C(F)(F)F)nc2)N(C)C(=O)[C@H](CCc2ccc(C(F)(F)F)c(Cl)c2)NC(=O)CN(C)C(=O)[C@H](CC2CCCCC2)N(C)C(=O)CN(C)C(=O)CN(C)C1=O [Compound 10] ([NMeL]I[Sar][Sar][NMeCha][Sar][hPhe(3-Cl-4-CF3)][X27][Ac5c][NMeChg][NMeD]-Piperidide; lactam N-11)
- IC50 [1]: 18 nM
- IC50 [2]: > 500 nM

SMILES: C=CCOC(=O)NCCCC[C@@H]1NC(=O)[C@H](CCc2ccc(C(F)(F)F)cc2)NC(=O)CN(C)C(=O)[C@H](Cc2ccc(Cl)cc2)N(C)C(=O)CN(C)C(=O)CN(C)C(=O)[C@H]([C@@H](C)CC)NC(=O)[C@H](CC(C)C)N(C)C(=O)C[C@@H](C)N(C)C(=O)[C@H](CC(C)C)NC(=O)C(C)(C)N(C)C1=O [Compound 12] (cyclo(I[Sar][Sar][NMePhe(4-Cl)][Sar][hPhe(4-CF3)]K(Alloc)[NMeAib]L[NMedβ3hAla][NMeL]))
- IC50 [1]: 240 nM
- IC50 [2]: > 500 nM

SMILES: CC[C@H](C)[C@@H]1NC(=O)[C@H](CC(C)C)N(C)C(=O)C[C@@H](C(=O)N(C)C)N(C)C(=O)[C@H](C2CCCC2)N(C)C(=O)C2(CCCC2)NC(=O)[C@@H]2CCCN2C(=O)[C@H](CCc2ccc(C(F)(F)F)c(F)c2)NC(=O)CN(C)C(=O)[C@H](Cc2ccc(C)cc2)N(C)C(=O)[C@@H]2CCN2C(=O)[C@H](C)N(C)C1=O [Compound 16] ([NMeL]I[NMeA][Aze][NMePhe(4-Me)][Sar][hPhe(3-F,4-CF3)]P[Ac5c][NMeGly(cPent)][NMeD]-NMe2; lactam N-11)
- IC50 [1]: 0.7 nM
- IC50 [2]: ≤ 20 nM

SMILES: COCC[C@@H]1NC(=O)[C@H](CC(C)C)N(C)C(=O)C[C@@H](C(=O)N2CCCCC2)N(C)C(=O)[C@H](C(C)C)N(C)C(=O)C2(CCCC2)NC(=O)[C@@H]2CCCN2C(=O)[C@H](CCc2ccc(C(F)(F)F)c(Cl)c2)NC(=O)CN(C)C(=O)[C@H](CC2CCCCC2)N(C)C(=O)[C@@H]2CCN2C(=O)[C@H](C)N(C)C1=O [Compound 17] ([NMeL][hSer](Me)[NMeA][Aze][NMeCha][Sar][hPhe(3-Cl-4-CF3)]P[Ac5c][NMeV][NMeD]-Piperidide; lactam N-11)
- IC50 [1]: 30 nM
- IC50 [2]: > 500 nM

SMILES: CC[C@H](C)[C@@H]1NC(=O)[C@H](CC(C)C)N(C)C(=O)C[C@@H](C(=O)N2CCCC2)N(C)C(=O)[C@H](C2CCCC2)N(C)C(=O)C2(CCCC2)NC(=O)[C@@H]2CCCN2C(=O)[C@H](CCc2ccc(C(F)(F)F)c(F)c2)NC(=O)CN(C)C(=O)[C@H](Cc2ccc(C)cc2)N(C)C(=O)[C@@H]2CCN2C(=O)[C@H](C)N(C)C1=O [Compound 20] ([NMeL]I[NMeA][Aze][NMePhe(4-Me)][Sar][hPhe(3-F,4-CF3)]P[Ac5c][NMeGly(cPent)][NMeD]-Pyrrolidide; lactam N-11)
- IC50 [1]: 0.76 nM
- IC50 [2]: ≤ 20 nM

SMILES: C#CC[C@H]1C(=O)N(C)CC(=O)N[C@@H](CCc2ccc(C(F)(F)F)c(Cl)c2)C(=O)N2CCC[C@H]2C(=O)NC2(CCCC2)C(=O)N(C)[C@@H](C(C)C)C(=O)N(C)[C@H](C(=O)N2CCCCC2)CC(=O)N(C)[C@@H](CC(C)C)C(=O)N[C@@H]([C@@H](C)CC)C(=O)N(C)[C@@H](C)C(=O)N2CC[C@H]2C(=O)N1C [Compound 32] ([NMeL]I[NMeA][Aze][NMePra][Sar][hPhe(3-Cl-4-CF3)]P[Ac5c][NMeV][NMeD]-Piperidide; lactam N-11)
- IC50 [1]: 20 nM
- IC50 [2]: > 500 nM

SMILES: CCO[C@@H]1C[C@H]2C(=O)NC3(CCCC3)C(=O)N(C)[C@@H]([C@@H](C)CC)C(=O)N(C)[C@H](C)CC(=O)N(C)[C@@H](CC(C)C)C(=O)N[C@@H]([C@@H](C)CC)C(=O)N(C)[C@@H](C)C(=O)N3CC[C@H]3C(=O)N(CC)[C@@H](Cc3ccc(C)cc3)C(=O)N(C)CC(=O)N[C@@H](CCc3cc(F)c(C(F)(F)F)c(F)c3)C(=O)N2C1 [Compound 33] (cyclo([Ac5c][NMeI][NMedβ3hAla][NMeL]I[NMeA][Aze][NEtPhe(4-Me)][Sar][hPhe(3,5-F2-4-CF3)][Hyp](Et)))
- IC50 [1]: 6.9 nM
- IC50 [2]: ≤ 20 nM

- IC50 [1]: 3.6 nM
SMILES: CC[C@H](C)[C@@H]1NC(=O)[C@H](CC(C)C)N(C)C(=O)C[C@@H](C(=O)N(C)C)N(C)C(=O)[C@H](C2CCCC2)N(C)C(=O)C2(CCCC2)NC(=O)CN(CCC2CNC2)C(=O)[C@H](CCc2ccc(C(F)(F)F)c(F)c2)NC(=O)CN(C)C(=O)[C@H](CC2CCCCC2)N(C)C(=O)[C@@H]2CCN2C(=O)[C@H](C)N(C)C1=O [Compound 2182, (3S,6S,9S,13S,16S,25S,31S,34S)-23-[2-(azetidin-3-yl)ethyl]-31-(cyclohexylmethyl)-16-cyclopentyl-25-[2-[3-fluoro-4-(trifluoromethyl)phenyl]ethyl]-9-isobutyl-N,N,3,4,10,14,17,29,32-nonamethyl-6-[(1S)-1-methylpropyl]-2,5,8,11,15,18,21,24,27,30,33-undecaoxo-spiro[1,4,7,10,14,17,20,23,26,29,32-undecazabicyclo[32.2.0]hexatriacontane-19,1′-cyclopentane]-13-carboxamide] ([NMeL]I[NMeA][Aze][NMeCha][Sar][hPhe(3-F,4-CF3)][X82][Ac5c][NMeGly(cPent)][NMeD]-NMe2; lactam N-11)

- IC50 [1]: 1.9 nM
SMILES: CC[C@H](C)[C@@H]1NC(=O)[C@H](CC(C)C)N(C)C(=O)C[C@@H](C(=O)N(C)C)N(C)C(=O)[C@H](C2CCCC2)N(C)C(=O)C2(CCCC2)NC(=O)CN(CCOCCNC)C(=O)[C@H](CCc2ccc(C(F)(F)F)c(Cl)c2)NC(=O)CN(C)C(=O)[C@H](CC2CCCCC2)N(C)C(=O)[C@@H]2CCN2C(=O)[C@H](C)N(C)C1=O [Compound 2183, (3S,6S,9S,13S,16S,25S,31S,34S)-25-[2-[3-chloro-4-(trifluoromethyl)phenyl]ethyl]-31-(cyclohexylmethyl)-16-cyclopentyl-9-isobutyl-N,N,3,4,10,14,17,29,32-nonamethyl-23-[2-[2-(methylamino)ethoxy]ethyl]-6-[(1S)-1-methylpropyl]-2,5,8,11,15,18,21,24,27,30,33-undecaoxo-spiro[1,4,7,10,14,17,20,23,26,29,32-undecazabicyclo[32.2.0]hexatriacontane-19,1′-cyclopentane]-13-carboxamide] ([NMeL]I[NMeA][Aze][NMeCha][Sar][hPhe(3-Cl-4-CF3)][X58][Ac5c][NMeGly(cPent)][NMeD]-NMe2; lactam N-11)

- IC50 [1]: 7.9 nM
SMILES: CC[C@H](C)[C@@H]1NC(=O)[C@H](CC(C)C)N(C)C(=O)C[C@@H](C(=O)N2CCCCC2)N(C)C(=O)[C@H](C2CCCCC2)N(C)C(=O)C2(CCCC2)NC(=O)CN(CCN2CCNCC2)C(=O)[C@H](CCc2ccc(C(F)(F)F)c(Cl)c2)NC(=O)CN(C)C(=O)[C@H](CC2CCCCC2)N(C)C(=O)CN(C)C(=O)CN(C)C1=O [Compound 2184, (11S,17S,26S,29S,33S,36S)-11-[2-[3-chloro-4-(trifluoromethyl)phenyl]ethyl]-36-cyclohexyl-17-(cyclohexylmethyl)-29-isobutyl-15,18,21,24,30,34,37-heptamethyl-26-[(1S)-1-methylpropyl]-9-(2-piperazin-1-ylethyl)-33-(piperidine-1-carbonyl)-6,9,12,15,18,21,24,27,30,34,37-undecazaspiro[4.33]octatriacontane-7.10,13,16,19,22,25,28,31,35,38-undecone] ([NMeL]I[Sar][Sar][NMeCha][Sar][hPhe(3-Cl-4-CF3)][X136][Ac5c][NMeChg][NMeD]-Piperidide; lactam N-11)

SMILES: CC[C@H](C)[C@@H]1NC(=O)[C@H](CC(C)C)N(C)C(=O)C[C@@H](C(=O)N2CCCCC2)N(C)C(=O)[C@H](C2CCCCC2)N(C)C(=O)C2(CCCC2)NC(=O)CN(CCOCCN)C(=O)[C@H](CCc2ccc(C(F)(F)F)c(Cl)c2)NC(=O)CN(C)C(=O)[C@H](CC2CCCCC2)N(C)C(=O)CN(C)C(=O)CN(C)C1=O [Compound 2185, (11S,17S,26S,29S,33S,36S)-9-[2-(2-aminoethoxy)ethyl]-11-[2-[3-chloro-4-(trifluoromethyl)phenyl]ethyl]-36-cyclohexyl-17-(cyclohexylmethyl)-29-isobutyl-15,18,21,24,30,34,37-heptamethyl-26-[(1S)-1-methylpropyl]-33-(piperidine-1-carbonyl)-6,9,12,15,18,21,24,27,30,34,37-undecazaspiro[4.33]octatriacontane-7,10,13,16,19,22,25,28,31,35,38-undecone] ([NMeL]I[Sar][Sar][NMeCha][Sar][hPhe(3-Cl-4-CF3)][X138][Ac5c][NMeChg][NMeD]-Piperidide; lactam N-11)
- IC50 [1]: 2.4 nM
